The subject of experiment [1] is Staphylococcus aureus. Kind of experiment: Antimicrobial activity against methicillin-resistant Staphylococcus aureus ATCC 43300 assessed as cell wall thickening at 1 ug/ml after 10 mins by transmission electron microscopy. Format: functional, organism-based.
Experiment [2] relates to Enterococcus faecalis. The experiment in a line: Antimicrobial activity against Enterococcus faecalis clinical isolate A5241515 assessed as septal deformation at 0.12 ug/ml after 3 hrs by transmission electron microscopy. Format: functional, organism-based.
Experiment [3] deals with Staphylococcus aureus. The experiment in a line: Antimicrobial activity against methicillin-resistant Staphylococcus aureus ATCC 43300 assessed as septal deformation at 1 ug/ml after 10 mins by transmission electron microscopy. Format: functional, organism-based.
The test system of experiment [4] is Staphylococcus aureus. Kind of experiment: Antimicrobial activity against methicillin-resistant Staphylococcus aureus ATCC 43300 assessed as aberrant septum formation at 1 ug/ml after 10 mins by transmission electron microscopy. Format: functional, organism-based.
Experiment [5] deals with Enterococcus faecalis. The experiment in a line: Antimicrobial activity against Enterococcus faecalis clinical isolate A5241515 assessed as growth inhibition at 1 ug/ml upto 6 hrs. Type of experiment: functional, organism-based.
Experiment [6] has as its system Staphylococcus aureus. Kind of experiment: Antimicrobial activity against methicillin-resistant Staphylococcus aureus ATCC 43300 assessed as formation of membrane inclusions at 1 ug/ml after 10 mins by transmission electron microscopy. Type of experiment: functional, organism-based.
For experiment [7], the system named is Enterococcus faecalis. Kind of experiment: Antimicrobial activity against Enterococcus faecalis clinical isolate A5241515 assessed as growth inhibition at 0.12 ug/ml upto 3 hrs. Type of experiment: functional, organism-based.
The test system of experiment [8] is Enterococcus faecalis. The experiment in a line: Antimicrobial activity against Enterococcus faecalis clinical isolate A5241515 assessed as cell ghost formation at 0.12 ug/ml after 3 hrs by transmission electron microscopy. Format: functional, organism-based.
For experiment [9], the system named is Staphylococcus aureus. The experiment in a line: Antimicrobial activity against methicillin-resistant Staphylococcus aureus ATCC 43300 assessed as loss of septal midline at 1 ug/ml after 10 mins by transmission electron microscopy. Type of experiment: functional, organism-based.
Experiment [10] relates to Enterococcus faecalis. Kind of experiment: Antimicrobial activity against Enterococcus faecalis clinical isolate A5241515 assessed as formation of large membrane inclusions at 1 ug/ml after 6 hrs by transmission electron microscopy. Format: functional, organism-based.
The subject of experiment [11] is Enterococcus faecalis. The experiment in a line: Antimicrobial activity against Enterococcus faecalis clinical isolate A5241515 assessed as formation of extensive fibrils around the cell at 0.12 ug/ml after 3 hrs by transmission electron microscopy. Type of experiment: functional, organism-based.
Experiment [12] relates to Staphylococcus aureus. The experiment in a line: Antimicrobial activity against methicillin-resistant Staphylococcus aureus ATCC 43300 assessed as reduction in cell counts at 1 ug/ml after 10 mins. Format: functional.
In experiment [13] the test system is Staphylococcus aureus. Kind of experiment: Antimicrobial activity against methicillin-resistant Staphylococcus aureus ATCC 43300 assessed as septal deformation at 16 ug/ml after 3 hrs by transmission electron microscopy. Format: functional, organism-based.
Experiment [14] deals with Staphylococcus aureus. Kind of experiment: Antimicrobial activity against methicillin-resistant Staphylococcus aureus ATCC 43300 assessed as formation of closing iris septal growth pattern at 16 ug/ml after 3 hrs by transmission electron microscopy. Format: functional, organism-based.
Experiment [15] relates to Staphylococcus aureus. Kind of experiment: Antimicrobial activity against methicillin-resistant Staphylococcus aureus ATCC 43300 assessed as cell wall thickening at 16 ug/ml after 3 hrs by transmission electron microscopy. Format: functional, organism-based.
The subject of experiment [16] is Staphylococcus aureus. Kind of experiment: Antimicrobial activity against methicillin-resistant Staphylococcus aureus ATCC 43300 assessed as loss of septal midline at 16 ug/ml after 3 hrs by transmission electron microscopy. Format: functional, organism-based.
Experiment [17] has as its system Staphylococcus aureus. Kind of experiment: Antimicrobial activity against methicillin-resistant Staphylococcus aureus ATCC 43300 assessed as aberrant septum formation at 16 ug/ml after 3 hrs by transmission electron microscopy. Type of experiment: functional, organism-based.
Experiment [18] deals with Staphylococcus aureus. Kind of experiment: Antimicrobial activity against methicillin-resistant Staphylococcus aureus ATCC 43300 assessed as reduction in cell counts at 16 ug/ml after 3 hrs. Type of experiment: functional.

Calls of active or inactive are those of the source. The rule behind the calls is not given here.

For the compound `CN[C@H](CC(C)C)C(=O)N[C@H]1C(=O)N[C@@H](CC(N)=O)C(=O)N[C@H]2C(=O)N[C@H]3C(=O)N[C@H](C(=O)N[C@H](C(=O)O)c4cc(O)cc(O)c4-c4cc3ccc4O)[C@H](O[C@H]3C[C@](C)(N)[C@@H](O)[C@H](C)O3)c3ccc(c(Cl)c3)Oc3cc2cc(c3O[C@@H]2O[C@H](CO)[C@@H](O)[C@H](O)[C@H]2O[C@H]2C[C@](C)(NCc3ccc(-c4ccc(Cl)cc4)cc3)[C@@H](O)[C@H](C)O2)Oc2ccc(cc2Cl)[C@H]1O` [ORITAVANCIN], the result in the experiment with Staphylococcus aureus [1], with Enterococcus faecalis [2], with Staphylococcus aureus [3], with Staphylococcus aureus [4], with Enterococcus faecalis [5] and in the experiment with Staphylococcus aureus [6] was Active. Moreover, the outcome in the experiment with Enterococcus faecalis [7], with Enterococcus faecalis [8], with Staphylococcus aureus [9], in the experiment with Enterococcus faecalis [10] and with Enterococcus faecalis [11] was Active. In the experiment with Staphylococcus aureus [12], the “fold change (FC)” value stood at 0.35.
With `CN[C@H](CC(C)C)C(=O)N[C@H]1C(=O)N[C@@H](CC(N)=O)C(=O)N[C@H]2C(=O)N[C@H]3C(=O)N[C@H](C(=O)N[C@H](C(=O)O)c4cc(O)cc(O)c4-c4cc3ccc4O)[C@H](O)c3ccc(c(Cl)c3)Oc3cc2cc(c3O[C@@H]2O[C@H](CO)[C@@H](O)[C@H](O)[C@H]2O[C@H]2C[C@](C)(N)[C@H](O)[C@H](C)O2)Oc2ccc(cc2Cl)[C@H]1O` [VANCOMYCIN], the outcome with Staphylococcus aureus [13], in the experiment with Staphylococcus aureus [16] and in the experiment with Staphylococcus aureus [17] was inactive. Besides, the outcome in the experiment with Staphylococcus aureus [14] and in the experiment with Staphylococcus aureus [15] was Active. Moreover, the “fold change (FC)” value with Staphylococcus aureus [18] is listed as 0.26.

The record behind these values is ChEMBL document CHEMBL1629626, “Ultrastructural effects of oritavancin on methicillin-resistant Staphylococcus aureus and vancomycin-resistant Enterococcus” (2009).
